According to patent US9018388B2, “Pesticidal compositions and processes related thereto” (Dow AgroSciences LLC, priority 2012, dated 2015):

Experiments:
Assay type in all cases: in vivo
[1] = tested on: Green Peach Aphid (GPA) (Myzus persicae); assay: Bioassay on green peach aphid (GPA), foliar spray on cabbage seedlings; conditions: 72 h, read-out: % Mortality GPA 200 ppm
Procedure: Bioassays on Green Peach Aphid (“GPA”) (Myzus persicae)
Certain molecules disclosed in this document were tested against GPA using procedures described in the following example. In the reporting of the results, the “GPA Rating Table” was used (See Table Section).
Cabbage seedlings grown in 3-inch pots, with 2-3 small (3-5 cm) true leaves, were used as test substrate. The seedlings were infested with 20-50 GPA (wingless adult and nymph stages) one day prior to chemical application. Four pots with individual seedlings were used for each treatment. Test compounds (2 mg) were dissolved in 2 mL of acetone/methanol (1:1) solvent, forming stock solutions of 1000 ppm test compound. The stock solutions were diluted 5× with 0.025% Tween 20 in H2O to obtain the solution at 200 ppm test compound. A hand-held aspirator-type sprayer was used for spraying a solution to both sides of […] leaves until runoff. Reference plants (solvent check) were sprayed with the diluent only containing 20% by volume of acetone/methanol (1:1) solvent. Treated plants were held in a holding room for three days at approximately 25° C. and ambient relative humidity (RH) prior to grading. Evaluation was conducted by counting the number of live aphids per plant under a microscope. Percent Control was measured by using Abbott's correction formula (W. S. Abbott, “A Method of Computing the Effectiveness of an Insecticide” J. Econ. Entomol. 18 (1925), pp. 265-267) as follows. Corrected%Control=100*(X−Y)/X • where • X=No. of live aphids on solvent check plants and • Y=No. of live aphids on treated plants
The results are indicated in the table entitled “Table 5: Biological Results” (See Table Section).

[2] = tested on: Beet Armyworm (BAW) (Spodoptera exigua); assay: Bioassay on beet armyworm (BAW), 128-well diet tray assay; conditions: Beet armyworm, 50 μg/cm^2; for pest or weed control at 50 µg/cm2, 50 µg/cm2: Spodoptera exigua, read-out: % Mortality BAW 50 μg/cm^2
Procedure, shortened: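 Second-instar Spodoptera exigua larvae, one to five per well, on artificial diet treated with 50 μg/cm^2 compound in 90:10 acetone-water and dried, eight wells per compound. Held at 25 °C, 14:10 light-dark for five to seven days; percent mortality averaged over wells.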

[3] = tested on: Corn Earworm (CEW) (Helicoverpa zea); assay: Bioassay on corn earworm (CEW), 128-well diet tray assay; conditions: Corn earworm, 50 μg/cm^2; for pest or weed control at 50 µg/cm2, 50 µg/cm2: Helicoverpa zea, read-out: % Mortality CEW 50 μg/cm^2
Procedure, shortened: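 Second-instar Helicoverpa zea larvae (one to five per well) placed on artificial diet treated with 50 μg/cm^2 compound in 90:10 acetone-water, dried, eight wells per compound. Held at 25 °C, 14:10 light-dark, five to seven days; percent mortality averaged over wells.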

For `CC(C)c1ccccc1N1C(=O)CS/C1=N\N=C\c1ccc(-c2ncn(-c3ccc(OC(F)(F)F)cc3)n2)cc1` [Compound 73C], the pest or weed control at 200 ppm [1] was 0 to 80%, the pest or weed control at 50 µg/cm2, 50 µg/cm2 [2] was 50 to 100% and the pest or weed control at 50 µg/cm2, 50 µg/cm2 [3] was 50 to 100%.
`Cc1cccc(C)c1/N=C(/N/N=C/c1ccc(-c2ncn(-c3ccc(OC(F)(F)F)cc3)n2)cc1)SCC(=O)N1CCN(C(=O)OC(C)(C)C)CC1` [Compound 57C] was tested, and the pest or weed control at 200 ppm [1] was 0 to 80%, the pest or weed control at 50 µg/cm2, 50 µg/cm2 [2] was 50 to 100% and the pest or weed control at 50 µg/cm2, 50 µg/cm2 [3] was 50 to 100%.
Compound `Fc1cccc(Cl)c1N1CCCS/C1=N\N=C\c1ccc(-c2ncn(-c3ccc(OC(F)(F)F)cc3)n2)cc1` [Compound 188C] has a pest or weed control at 200 ppm [1] of 0 to 80%, a pest or weed control at 50 µg/cm2, 50 µg/cm2 [2] of 50 to 100% and a pest or weed control at 50 µg/cm2, 50 µg/cm2 [3] of 50 to 100%.
`Cc1ncccc1N1CCCS/C1=N\N=C\c1ccc(-c2ncn(-c3ccc(OC(F)(F)F)cc3)n2)cc1` [Compound 205C] gave a pest or weed control at 200 ppm [1] of 0 to 80%, a pest or weed control at 50 µg/cm2, 50 µg/cm2 [2] of 50 to 100% and a pest or weed control at 50 µg/cm2, 50 µg/cm2 [3] of 50 to 100%.
With `COc1ccc(N2CCCS/C2=N\N=C\c2ccc(-c3ncn(-c4ccc(OC(F)(F)F)cc4)n3)cc2)cc1` [Compound 202C] the pest or weed control at 200 ppm [1] was 0 to 80%, the pest or weed control at 50 µg/cm2, 50 µg/cm2 [2] was 50 to 100% and the pest or weed control at 50 µg/cm2, 50 µg/cm2 [3] was 50 to 100%.
With `Cc1cccc(C)c1N1C(=O)CS/C1=N\N=C\c1ccc(-c2ncn(-c3ccc(OC(F)(F)F)cc3)n2)cc1` [Compound 72C] the pest or weed control at 200 ppm [1] was 0 to 80%, the “% Mortality BAW 50 μg/cm^2” value [2] was “A (50-100)” and the “% Mortality CEW 50 μg/cm^2” value [3] was “A (50-100)”.
`COc1ccc(C(C)/N=C(/N/N=C/c2ccc(-c3ncn(-c4ccc(OC(F)(F)F)cc4)n3)cc2)SCC(=O)O)cc1F` (centres unmarked) [Compound 53C] was tested, and the pest or weed control at 200 ppm [1] was 0 to 80% and the pest or weed control at 50 µg/cm2, 50 µg/cm2 [2] was 0 to 50%.
Compound `CC(C)=Cc1ccccc1N1CCS/C1=N\N=C\c1ccc(-c2ncn(-c3ccc(OC(F)(F)F)cc3)n2)cc1` [Compound 151C] has a pest or weed control at 200 ppm [1] of 0 to 80%, a pest or weed control at 50 µg/cm2, 50 µg/cm2 [2] of 50 to 100% and a pest or weed control at 50 µg/cm2, 50 µg/cm2 [3] of 50 to 100%.
`Cc1cccc(C)c1/N=C(/N/N=C/c1ccc(-c2ncn(-c3ccc(OC(F)(F)F)cc3)n2)cc1)SCc1ccc(S(C)(=O)=O)cc1` [Compound 17C] showed a pest or weed control at 200 ppm [1] of 0 to 80%, a pest or weed control at 50 µg/cm2, 50 µg/cm2 [2] of 50 to 100% and a pest or weed control at 50 µg/cm2, 50 µg/cm2 [3] of 50 to 100%.
`COc1cc(Cl)c(/N=C(/N/N=C/c2ccc(-c3ncn(-c4ccc(OC(F)(F)F)cc4)n3)cc2)SCOC(=O)C(C)C)c(Cl)c1` [Compound 34C] showed a pest or weed control at 200 ppm [1] of 0 to 80%.
`CC1CS/C(=N\N=C\c2ccc(-c3ncn(-c4ccc(OC(F)(F)F)cc4)n3)cc2)N1c1c(Cl)cccc1Cl` (centres unmarked) [Compound 157C] showed a pest or weed control at 200 ppm [1] of 0 to 80%, a pest or weed control at 50 µg/cm2, 50 µg/cm2 [2] of 50 to 100% and a pest or weed control at 50 µg/cm2, 50 µg/cm2 [3] of 50 to 100%.
With `CC(C)c1ccccc1/N=C1\SCCCN1/N=C/c1ccc(-c2ncn(-c3ccc(C(F)(F)F)cc3)n2)cc1` [Compound 87C, (2Z,NE)-2-((2-isopropylphenyl)imino)-N-(4-(1-(4-(trifluoromethyl)phenyl)-1H-1,2,4-triazol-3-yl)benzylidene)-1,3-thiazinan-3-amine] the pest or weed control at 200 ppm [1] was 0 to 80%.
For `COc1ccc(C(C)/N=C(/N/N=C/c2ccc(-c3ncn(-c4ccc(OC(F)(F)F)cc4)n3)cc2)SCC(=O)O)cc1` (centres unmarked) [Compound 52C], the pest or weed control at 200 ppm [1] was 0 to 80% and the pest or weed control at 50 µg/cm2, 50 µg/cm2 [2] was 0 to 50%.
`CCOCC(=O)OCS/C(=N\c1c(Cl)cc(OC)cc1Cl)N/N=C/c1ccc(-c2ncn(-c3ccc(OC(F)(F)F)cc3)n2)cc1` [Compound 32C] showed a pest or weed control at 200 ppm [1] of 0 to 80%.
`CS/C(=N\c1ccc(N(C)C)cc1)N/N=C/c1ccc(-c2ncn(-c3ccc(OC(F)(F)F)cc3)n2)cc1` [Compound 1C, N-(4-dimethylaminophenyl)-S-methyl-2-{4-[1-(4-trifluoromethoxyphenyl)-1H-[1,2,4]-triazol-3-yl]-benzylidene}-hydrazine-carbothioamide] was tested, and the pest or weed control at 50 µg/cm2, 50 µg/cm2 [2] was 50 to 100% and the pest or weed control at 50 µg/cm2, 50 µg/cm2 [3] was 50 to 100%.
In the case of `Cc1cccc(C)c1/N=C(/N/N=C/c1ccc(-c2ncn(-c3ccc(OC(F)(F)F)cc3)n2)cc1)SCC(=O)NCC(C)C` [Compound 55C], the pest or weed control at 50 µg/cm2, 50 µg/cm2 [2] is reported as 50 to 100% and the pest or weed control at 50 µg/cm2, 50 µg/cm2 [3] is reported as 50 to 100%.
